Biological target: PIK3CA (human) (UniProt P42336)
Test: Inhibition of PIK3CA Kinase Activity

PIK3CA (human), sequence (P42336 whole entry, looked up): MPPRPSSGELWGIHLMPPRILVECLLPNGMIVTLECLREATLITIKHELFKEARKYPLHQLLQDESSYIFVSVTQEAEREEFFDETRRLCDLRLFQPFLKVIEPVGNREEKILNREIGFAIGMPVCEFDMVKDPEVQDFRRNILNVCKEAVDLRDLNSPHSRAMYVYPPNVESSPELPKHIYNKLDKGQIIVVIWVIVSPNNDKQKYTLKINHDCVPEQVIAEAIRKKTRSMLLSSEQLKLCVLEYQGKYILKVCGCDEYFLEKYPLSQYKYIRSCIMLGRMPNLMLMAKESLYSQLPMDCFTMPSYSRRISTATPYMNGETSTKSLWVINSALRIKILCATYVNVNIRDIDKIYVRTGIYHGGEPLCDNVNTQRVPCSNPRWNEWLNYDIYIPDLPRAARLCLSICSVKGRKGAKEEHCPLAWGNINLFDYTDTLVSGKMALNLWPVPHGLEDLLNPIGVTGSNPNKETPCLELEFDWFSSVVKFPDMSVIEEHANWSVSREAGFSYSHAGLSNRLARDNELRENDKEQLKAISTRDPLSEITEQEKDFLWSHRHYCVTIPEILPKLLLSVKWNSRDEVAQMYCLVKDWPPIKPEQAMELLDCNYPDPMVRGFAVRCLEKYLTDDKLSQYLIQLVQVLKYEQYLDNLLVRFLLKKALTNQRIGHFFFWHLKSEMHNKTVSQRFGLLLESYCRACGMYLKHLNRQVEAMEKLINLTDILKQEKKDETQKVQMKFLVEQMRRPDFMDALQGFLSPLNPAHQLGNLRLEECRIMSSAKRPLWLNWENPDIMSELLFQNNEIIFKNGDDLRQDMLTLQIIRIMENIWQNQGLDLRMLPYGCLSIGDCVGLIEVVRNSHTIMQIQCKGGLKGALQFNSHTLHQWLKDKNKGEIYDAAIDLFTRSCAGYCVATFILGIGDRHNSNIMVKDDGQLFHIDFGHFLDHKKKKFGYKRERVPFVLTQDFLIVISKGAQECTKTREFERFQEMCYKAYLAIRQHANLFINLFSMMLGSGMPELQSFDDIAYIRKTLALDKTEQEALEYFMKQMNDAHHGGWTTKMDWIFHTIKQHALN

IC50, < 1000 nM:
Cc1ccn(-c2nc(-c3ccc(N)nc3)nc(N3CCOCC3)n2)n1
C#Cc1cn(-c2nc(-c3cccc4[nH]ccc34)nc(N3CCOCC3)n2)c(CC)n1
Cc1nc(N)ncc1-c1nc(N2CCOCC2)nc(-n2ccnc2C(C)C)n1
CCN(CC)CCN(C)Cc1cn(-c2nc(-c3cccc4[nH]ccc34)nc(N3CCOCC3)n2)cn1
Nc1ncc(-c2nc(N3CCOCC3)nc(-n3ccc(C(F)(F)F)n3)n2)cn1
CC(C)c1nccn1-c1nc(-c2cnc(N)nc2)nc(N2CCOCC2)n1
CCc1nc(C)c(CO)n1-c1nc(-c2cccc3[nH]ccc23)nc(N2CCOCC2)n1
CCCc1nccn1-c1nc(-c2ccnc3[nH]ccc23)nc(N2CCOCC2)n1
OCc1cn(-c2nc(-c3cccc4[nH]ccc34)nc(N3CCOCC3)n2)cn1
FC(F)(F)c1nc2ccccc2n1-c1nc(-c2cccc3[nH]ccc23)nc(N2CCOCC2)n1
CCc1nccn1-c1nc(-c2cccc3[nH]ccc23)nc(N2CCOCC2)n1
Oc1cccc(-c2nc(N3CCOCC3)nc(-n3c(C(F)F)nc4ccccc43)n2)c1
C[C@H]1COCCN1c1nc(-c2cnc(N)nc2)nc(-n2c(C(F)F)nc3ccccc32)n1
Cc1ccn(-c2nc(-c3cccc4[nH]ccc34)nc(N3CCOCC3)n2)n1
CCCc1nc2ccccc2n1-c1nc(-c2cccc3[nH]ccc23)nc(N2CCOCC2)n1
c1ccc(Cc2nccn2-c2nc(-c3cccc4[nH]ccc34)nc(N3CCOCC3)n2)cc1
Cc1nccn1-c1nc(-c2cccc3[nH]ccc23)nc(N2CCOCC2)n1
CCCCN(C)Cc1c(C)nc(CC)n1-c1nc(-c2cccc3[nH]ccc23)nc(N2CCOCC2)n1
Cc1cc(C)n(-c2nc(-c3cccc4[nH]ccc34)nc(N3CCOCC3)n2)n1
c1ccc2c(c1)nc(C1CC1)n2-c1nc(-c2cccc3[nH]ccc23)nc(N2CCOCC2)n1
O=C(O)c1cc2ccccc2n1-c1nc(-c2cccc3[nH]ccc23)nc(N2CCOCC2)n1
Nc1ncc(-c2nc(N3CCOCC3)nc(-n3ncc4c3CCCC4)n2)cn1
Nc1ncc(-c2nc(N3CCOCC3)nc(-n3c(C(F)F)nc4ccccc43)n2)cn1
Cc1nccn1-c1nc(-c2cccc(O)c2)nc(N2CCOCC2)n1
Cc1nc2ccccc2n1-c1nc(-c2cccc(CO)c2)nc(N2CCOCC2)n1
N#CCCc1nccn1-c1nc(-c2cnc(N)nc2)nc(N2CCOCC2)n1
Cc1cc(C(F)(F)F)n(-c2nc(-c3ccc(N)nc3)nc(N3CCOCC3)n2)n1
FC(F)c1nc2ccccc2n1-c1nc(-c2cccc3[nH]ccc23)nc(N2CCOCC2)n1
O=C(NC1CC1)c1cc2ccccc2n1-c1nc(-c2cccc3[nH]ccc23)nc(N2CCOCC2)n1
Cc1nccn1-c1nc(-c2cccc3[nH]ncc23)nc(N2CCOCC2)n1
Cc1nccn1-c1nc(-c2cnc(N)nc2)nc(N2CCOCC2)n1
Cc1nc2ccccc2n1-c1nc(-c2cccc3[nH]ccc23)nc(N2CCOCC2)n1
CC(C)c1nccn1-c1nc(-c2cccc3[nH]ccc23)nc(N2CCOCC2)n1
Cc1nc(CN2CCCC2)cn1-c1nc(-c2cccc3[nH]ccc23)nc(N2CCOCC2)n1
CCCCc1nccn1-c1nc(-c2cnc(N)nc2)nc(N2CCOCC2)n1
Cc1nc(CO)cn1-c1nc(-c2cccc3[nH]ccc23)nc(N2CCOCC2)n1
Nc1ccc(-c2nc(N3CCOCC3)nc(-n3ncc4c3CCCC4)n2)cn1
CCCc1nc2ccccc2n1-c1nc(-c2cnc(N)nc2)nc(N2CCOCC2)n1
CCCCc1nc2ccccc2n1-c1nc(-c2cnc(N)nc2)nc(N2CCOCC2)n1
Cc1ccc2c(c1)ncn2-c1nc(-c2cccc3[nH]ccc23)nc(N2CCOCC2)n1
N#CCCc1nccn1-c1nc(-c2cccc3[nH]ccc23)nc(N2CCOCC2)n1
CCc1cn(-c2nc(-c3cccc4[nH]ccc34)nc(N3CCOCC3)n2)c(CC)n1
CCCCN(C)Cc1cn(-c2nc(-c3cccc4[nH]ccc34)nc(N3CCOCC3)n2)c(C)n1
CC(C)c1nc2ccccc2n1-c1nc(-c2cccc3[nH]ccc23)nc(N2CCOCC2)n1
Cc1nc2ccccc2n1-c1nc(-c2cnc(N)nc2)nc(N2CCOCC2)n1
CCCc1nccn1-c1nc(-c2cccc3[nH]ccc23)nc(N2CCOCC2)n1
CCc1nc(C)cn1-c1nc(-c2cccc3[nH]ccc23)nc(N2CCOCC2)n1
Cc1nccn1-c1nc(-c2cccc(CO)c2)nc(N2CCOCC2)n1
N#CC=Cc1nccn1-c1nc(-c2cccc3[nH]ccc23)nc(N2CCOCC2)n1
CC(=O)Nc1ccc(-c2nc(N3CCOCC3)nc(-n3c(C)nc4ccccc43)n2)cn1
COCCNCc1cn(-c2nc(-c3cccc4[nH]ccc34)nc(N3CCOCC3)n2)c(C)n1
Cc1cc(C(F)(F)F)n(-c2nc(-c3cnc(N)nc3)nc(N3CCOCC3)n2)n1
c1cc(-c2nc(N3CCOCC3)nc(-n3ccnc3)n2)c2cc[nH]c2c1
c1cc(-c2nc(N3CCOCC3)nc(-n3cnc(CN4CCCC4)c3)n2)c2cc[nH]c2c1
COc1nc(N)ncc1-c1nc(N2CCOCC2)nc(-n2ccnc2C)n1
CC(C)Cc1nccn1-c1nc(-c2cccc3[nH]ccc23)nc(N2CCOCC2)n1
Cc1cc(C)n(-c2nc(-c3ccc(N)nc3)nc(N3CCOCC3)n2)n1
Cc1cn(-c2nc(-c3cccc4[nH]ccc34)nc(N3CCOCC3)n2)cn1
Nc1ccc(-c2nc(N3CCOCC3)nc(-n3ccc(C(F)(F)F)n3)n2)cn1
CC#Cc1cn(-c2nc(-c3cccc4[nH]ccc34)nc(N3CCOCC3)n2)c(CC)n1
Cc1nc2ccccc2n1-c1nc(-c2cc(O)cc(F)c2)nc(N2CCOCC2)n1
CCc1nc(C#Cc2ccccn2)cn1-c1nc(-c2cccc3[nH]ccc23)nc(N2CCOCC2)n1
c1ccc(-c2nccn2-c2nc(-c3cccc4[nH]ccc34)nc(N3CCOCC3)n2)cc1
CCc1nccn1-c1nc(-c2ccnc3[nH]ccc23)nc(N2CCOCC2)n1
COC(=O)CCc1nc2ccccc2n1-c1nc(-c2cccc3[nH]ccc23)nc(N2CCOCC2)n1
Nc1ccc2c(c1)nc(C(F)(F)F)n2-c1nc(-c2cccc3[nH]ccc23)nc(N2CCOCC2)n1
CCc1nc2ccccc2n1-c1nc(-c2cnc(N)nc2)nc(N2CCOCC2)n1
CC(C)c1nc2ccccc2n1-c1nc(-c2cnc(N)nc2)nc(N2CCOCC2)n1
COCCNC(=O)c1cc2ccccc2n1-c1nc(-c2cccc3[nH]ccc23)nc(N2CCOCC2)n1
Cc1nc2ccccc2n1-c1nc(-c2cccc(O)c2)nc(N2CCOCC2)n1
C=Cc1nccn1-c1nc(-c2cccc3[nH]ccc23)nc(N2CCOCC2)n1
CCCc1cn(-c2nc(-c3cccc4[nH]ccc34)nc(N3CCOCC3)n2)c(CC)n1
CCc1nc2ccccc2n1-c1nc(-c2cccc3[nH]ccc23)nc(N2CCOCC2)n1
Cc1nc(CNC2CC2)cn1-c1nc(-c2cccc3[nH]ccc23)nc(N2CCOCC2)n1
CCCCc1nccn1-c1nc(-c2cccc3[nH]ccc23)nc(N2CCOCC2)n1
CCCCc1nc2ccccc2n1-c1nc(-c2cccc3[nH]ccc23)nc(N2CCOCC2)n1
Cc1ccn(-c2nc(-c3cnc(N)nc3)nc(N3CCOCC3)n2)n1
CCc1nccn1-c1nc(-c2cnc(N)nc2)nc(N2CCOCC2)n1
Cc1nc2ccccc2n1-c1nc(-c2ccc(N)nc2)nc(N2CCOCC2)n1
